Here are results for three compounds from article PMC12169669, “Regio- and Stereoselective Synthesis of Nitro-fatty Acids as NRF2 Pathway Activators Working under Ambient or Hypoxic Conditions” (Journal of Medicinal Chemistry, 2025).

One experiment concerns Nfe2l2. Description: Relative gene expression of Nfe2l2 in BMCs (qRT-PCR). The class given is cell-based, mouse. The settings on record: 2 μM, 4 h. The source says: Primary bone marrow cells (BMCs) were isolated from 8–12-week-old male C57BL/6 mice (25–30 g, AnLab, Czech Republic). Mice were housed under standard conditions. BMCs were isolated as follows: The day before isolation, phosphate-buffered saline (PBS), ACK Lysis Buffer (A10492-01, Thermo Fisher Scientific), and Iscove’s Modified Dulbecco’s Medium (IMDM) (12440-053, Thermo Fisher Scientific) were placed in a hypoxic chamber (InvivO2 400, Baker Ruskinn, UK) with adjustable oxygen control to equilibrate for the target oxygen concentrations. On the day of the experiment, animals were euthanized using ketamine/xylazine, and bilateral femurs were extracted. […] After hemolysis at room temperature using hypoxic ACK Lysis Buffer, nucleated BMCs were washed with hypoxic PBS + 2% FBS and counted using a TC20 automated cell counter (Bio-Rad). […]
3 Expression of NRF2 and its target genes in response to NO2FA derivatives. BMCs were cultured under 4% or 1% oxygen conditions and treated for 4 h with the tested NO 2 FAs (2 μM) or medium followed by quantification of (A) Nfe2l2, (B) Hmox1, and (C) Gclm with PCR. […] Data are expressed as mean ± SD from 3 to 7 independent experiments (n = 3–7), analyzed with one-way ANOVA with Dunnett’s multiple comparisons test compared to the controls (*p < 0.05; **p < 0.01; ***p < 0.001).

In experiment [1] the test system is NRF2. The settings on record: comparison of positional isomers; literature; cited from earlier work.
Experiment [2] relates to NRF2. The settings on record: colon cancer cell line, versus shorter or longer chain derivatives; literature; cited from earlier work.
Experiment [3] concerns NRF2. Description: Immunocytochemistry of NRF2 in BMCs. It counts as cell-based, mouse. The settings on record: 1 h, 1% oxygen. As for the experimental part: BMCs (2 × 10^6 cells in 300 μL of complete medium) were incubated with 10-NO 2 OA or control medium for 1 h in a 1% oxygen incubator. Cells were then washed with PBS, resuspended in fresh PBS, and plated on an 8-well μ-slide (ibidi, Germany). After allowing cells to settle (10 min), PBS was aspirated, and cells were fixed with 4% paraformaldehyde for 10 min. From this step onward, all work was performed under atmospheric conditions. Cells were washed twice, permeabilized with 0.1% Triton X-100, washed again, and blocked with 1% BSA/PBS. Samples were incubated with primary anti-NRF2 antibody (1:100, SAB4501384, Millipore) overnight at 4 °C. After washing, a secondary Alexa Fluor 647 antibody (1:100, A31573, Invitrogen) was added for 1 h at room temperature in the dark. After washes, nuclei were stained with DAPI (0.5 μg/mL, Merck) for 10 min at room temperature in the dark, washed, and mounted on a microscope slide. Images were acquired with an Olympus FV10i (Olympus, Japan) scanning microscope and analyzed using ImageJ v1.52 (NIH).
5 Subcellular localization of NRF2. NO 2 FA derivatives promote nuclear translocation of NRF2 in mouse BMCs. BMCs were cultured under 1% oxygen conditions and treated for 1 h with 2 μM of 10-NO 2 OA, 10-NO 2 LA, or 10-NO 2 SA. […] Data are expressed as mean ± SD from two independent experiments (n = 2). […]

The test system of another experiment is Gclm and Hmox1. More on the design: method as in Khoo et al. The settings on record: compared to other derivatives; ref Khoo et al.; cited from earlier work.

For the compound `CCCCCCCC/C=C(\CCCCCCCC(=O)O)[N+](=O)[O-]` [9-NO2OA, (9E)-9-Nitro-oleic Acid], the Nfe2l2 relative expression result with Nfe2l2 (4% oxygen) is “significantly increased”. In the experiment on NRF2 [1], the “NRF2 activation (ARE-reporter luciferase)” value is on record as “preferentially activated NRF2 over 10-NO 2 OA”. In addition, the NRF2 induction entry in the experiment with NRF2 [2] is reported as “induced NRF2 more robustly”.
Turning to `CCCCCCCCC(CCCCCCCCC(=O)O)[N+](=O)[O-]` (stereo not drawn) [10-NO2SA, 10-Nitro Stearic acid], the Nfe2l2 relative expression entry in the experiment with Nfe2l2 (4% and 1% oxygen) is “no effects”.
As to `CCCCCCCC/C(=C\CCCCCCCC(=O)O)[N+](=O)[O-]` [10-NO2OA, (9E)-10-Nitro-oleic Acid], the “colocalization of NRF2 with the nucleus” value with NRF2 [3] is “increased colocalization”. For the same compound, the “expression of Gclm and Hmox1” value in the experiment on Gclm and Hmox1 was “induced a higher expression”.
